From PubChem BioAssay AID2060906 (Molecular Pharmacology Branch, DTP, NCI, 2025)
pIC50: −log10 of the molar value.

System: 485176-168-R4-J1-PDC complex spheroid growth
Experiment: Anticancer human tumor 485176-168-R4-J1-PDC patient-derived pancreatic adenocarcinoma cell line growth inhibition [RAS]
Details: for pIC50: curve of first compound; for viability, T/C: stronger effect = lower value
How it was run: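 Multi-cell-type spheroids: tumor cells plus HUVEC endothelial cells and mesenchymal stem cells. RAS-pathway inhibitors were combined with targeted agents, each dosed in half-log steps down from clinical Cmax, or from 10 microM when Cmax was unknown.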
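Further: spheroids exposed to compounds for seven days before readout.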
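Wherever viability, T/C is given: luminescence viability expressed relative to DMSO vehicle wells set as 100%.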

CCc1c2c(nc3ccc(O)cc13)-c1cc3c(c(=O)n1C2)COC(=O)[C@]3(O)CC + C#Cc1c(F)ccc2cc(O)cc(-c3ncc4c(N5CC6CCC(C5)N6)nc(OCC56CCCN5CC(F)C6)nc4c3F)c12
pIC50 (second compound 0.0316 µM): 7.71
pIC50 (second compound 0.1 µM): 7.87
pIC50 (second compound 0.316 µM): 7.79
pIC50 (second compound 1 µM): 7.75
pIC50 (second compound 3.16 µM): 7.66
pIC50 (second compound 10 µM): 7.57
viability, T/C (second compound 0.0316 µM, first compound 0.000949 µM): 93.9%
viability, T/C (second compound 0.0316 µM, first compound 0.003 µM): 82.8%
viability, T/C (second compound 0.0316 µM, first compound 0.00949 µM): 71.2%
viability, T/C (second compound 0.0316 µM, first compound 0.03 µM): 36.8%
viability, T/C (second compound 0.0316 µM, first compound 0.0949 µM): 16.7%
viability, T/C (second compound 0.0316 µM, first compound 0.3 µM): 7.74%
viability, T/C (second compound 0.1 µM, first compound 0.000949 µM): 102%
viability, T/C (second compound 0.1 µM, first compound 0.003 µM): 96.7%
viability, T/C (second compound 0.1 µM, first compound 0.00949 µM): 52.9%
viability, T/C (second compound 0.1 µM, first compound 0.03 µM): 32.2%
viability, T/C (second compound 0.1 µM, first compound 0.0949 µM): 18.3%
viability, T/C (second compound 0.1 µM, first compound 0.3 µM): 6.56%
viability, T/C (second compound 0.316 µM, first compound 0.000949 µM): 112%
viability, T/C (second compound 0.316 µM, first compound 0.003 µM): 107%
viability, T/C (second compound 0.316 µM, first compound 0.00949 µM): 60.7%
viability, T/C (second compound 0.316 µM, first compound 0.03 µM): 35.2%
viability, T/C (second compound 0.316 µM, first compound 0.0949 µM): 16%
viability, T/C (second compound 0.316 µM, first compound 0.3 µM): 6.47%
viability, T/C (second compound 1 µM, first compound 0.000949 µM): 102%
viability, T/C (second compound 1 µM, first compound 0.003 µM): 94.4%
viability, T/C (second compound 1 µM, first compound 0.00949 µM): 63%
viability, T/C (second compound 1 µM, first compound 0.03 µM): 38.6%
viability, T/C (second compound 1 µM, first compound 0.0949 µM): 15.9%
viability, T/C (second compound 1 µM, first compound 0.3 µM): 7.94%
viability, T/C (second compound 3.16 µM, first compound 0.000949 µM): 94.7%
viability, T/C (second compound 3.16 µM, first compound 0.003 µM): 101%
viability, T/C (second compound 3.16 µM, first compound 0.00949 µM): 69.3%
viability, T/C (second compound 3.16 µM, first compound 0.03 µM): 42.9%
viability, T/C (second compound 3.16 µM, first compound 0.0949 µM): 19.1%
viability, T/C (second compound 3.16 µM, first compound 0.3 µM): 9.06%
viability, T/C (second compound 10 µM, first compound 0.000949 µM): 127%
viability, T/C (second compound 10 µM, first compound 0.003 µM): 90.6%
viability, T/C (second compound 10 µM, first compound 0.00949 µM): 77.9%
viability, T/C (second compound 10 µM, first compound 0.03 µM): 46.6%
viability, T/C (second compound 10 µM, first compound 0.0949 µM): 17.7%
viability, T/C (second compound 10 µM, first compound 0.3 µM): 6.96%

CC(C)n1nc(-c2ccc3oc(N)nc3c2)c2c(N)ncnc21 + CCn1c(-c2cccnc2C(C)OC)c2c3cc(ccc31)N1CCOC(CC(NC(=O)C(C(C)C)N(C)C(=O)C3(F)CCN(C(=O)C#CC(C)(C)N(C)C)CC3)C(=O)N3CCCC(N3)C(=O)OCC(C)(C)C2)C1
pIC50 (second compound 0.000949 µM): 7.65
pIC50 (second compound 0.003 µM): 7.54
pIC50 (second compound 0.00949 µM): 7.67
pIC50 (second compound 0.03 µM): 7.78
pIC50 (second compound 0.0949 µM): 7.76
pIC50 (second compound 0.3 µM): 8.12
viability, T/C (second compound 0.000949 µM, first compound 0.000316 µM): 104%
viability, T/C (second compound 0.000949 µM, first compound 0.001 µM): 81.1%
viability, T/C (second compound 0.000949 µM, first compound 0.00316 µM): 93.7%
viability, T/C (second compound 0.000949 µM, first compound 0.01 µM): 75.7%
viability, T/C (second compound 0.000949 µM, first compound 0.0316 µM): 38.5%
viability, T/C (second compound 0.000949 µM, first compound 0.1 µM): 17.7%
viability, T/C (second compound 0.003 µM, first compound 0.000316 µM): 82.1%
viability, T/C (second compound 0.003 µM, first compound 0.001 µM): 79.9%
viability, T/C (second compound 0.003 µM, first compound 0.00316 µM): 85.5%
viability, T/C (second compound 0.003 µM, first compound 0.01 µM): 72.5%
viability, T/C (second compound 0.003 µM, first compound 0.0316 µM): 48.1%
viability, T/C (second compound 0.003 µM, first compound 0.1 µM): 21.4%
viability, T/C (second compound 0.00949 µM, first compound 0.000316 µM): 88.1%
viability, T/C (second compound 0.00949 µM, first compound 0.001 µM): 89.4%
viability, T/C (second compound 0.00949 µM, first compound 0.00316 µM): 84.1%
viability, T/C (second compound 0.00949 µM, first compound 0.01 µM): 61.8%
viability, T/C (second compound 0.00949 µM, first compound 0.0316 µM): 43.9%
viability, T/C (second compound 0.00949 µM, first compound 0.1 µM): 16%
viability, T/C (second compound 0.03 µM, first compound 0.000316 µM): 85.5%
viability, T/C (second compound 0.03 µM, first compound 0.001 µM): 84.5%
viability, T/C (second compound 0.03 µM, first compound 0.00316 µM): 85.7%
viability, T/C (second compound 0.03 µM, first compound 0.01 µM): 62.6%
viability, T/C (second compound 0.03 µM, first compound 0.0316 µM): 33%
viability, T/C (second compound 0.03 µM, first compound 0.1 µM): 18.6%
viability, T/C (second compound 0.0949 µM, first compound 0.000316 µM): 90.5%
viability, T/C (second compound 0.0949 µM, first compound 0.001 µM): 86.9%
viability, T/C (second compound 0.0949 µM, first compound 0.00316 µM): 69%
viability, T/C (second compound 0.0949 µM, first compound 0.01 µM): 65%
viability, T/C (second compound 0.0949 µM, first compound 0.0316 µM): 36.9%
viability, T/C (second compound 0.0949 µM, first compound 0.1 µM): 19.9%
viability, T/C (second compound 0.3 µM, first compound 0.000316 µM): 76.9%
viability, T/C (second compound 0.3 µM, first compound 0.001 µM): 72.8%
viability, T/C (second compound 0.3 µM, first compound 0.00316 µM): 59.3%
viability, T/C (second compound 0.3 µM, first compound 0.01 µM): 44.1%
viability, T/C (second compound 0.3 µM, first compound 0.0316 µM): 34.1%
viability, T/C (second compound 0.3 µM, first compound 0.1 µM): 14.2%
